Source: patent US20200247812A1 (Integral Biosciences Private Limited, priority 2018, published 2020)

Target: T1, ALK 5 (Homo sapiens, UniProt P36897)
T1 sequence (P36897 34-503): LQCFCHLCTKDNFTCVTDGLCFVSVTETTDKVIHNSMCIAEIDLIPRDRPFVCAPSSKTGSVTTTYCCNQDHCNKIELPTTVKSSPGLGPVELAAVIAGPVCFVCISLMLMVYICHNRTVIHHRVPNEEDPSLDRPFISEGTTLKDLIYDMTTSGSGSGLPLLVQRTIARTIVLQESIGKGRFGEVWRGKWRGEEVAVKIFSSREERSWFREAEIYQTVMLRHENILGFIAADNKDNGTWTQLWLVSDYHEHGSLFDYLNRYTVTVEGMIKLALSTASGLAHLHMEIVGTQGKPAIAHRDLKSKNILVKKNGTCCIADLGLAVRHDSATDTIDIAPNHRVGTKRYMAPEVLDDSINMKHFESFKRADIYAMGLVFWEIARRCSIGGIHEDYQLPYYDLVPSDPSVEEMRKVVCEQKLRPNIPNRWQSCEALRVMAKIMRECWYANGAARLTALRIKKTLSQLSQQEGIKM
Assay: In vitro kinase assay (ALK5 IC50, LanthaScreen Terbium labeled TR-FRET)
Format: biochemical
Conditions: TGF-β kinase 6 nM, ATP 10 μM, read-out: Enzyme Activity ALK 5 IC50
Experimental: Compounds of the invention were screened in an in vitro kinase assay against ALK 5, a members of the TGF-β family of Ser/Thr kinases. Standard kinase testing conditions and techniques were employed. IC50 values of compounds against TGF-ß kinase was determined by LanthaScreen™ Terbium Labeled TR-FRET assay. Kinase assays were performed in 1X kinase buffer (# PV6135, Invitrogen, Life Technologies Grand Island, N.Y.) where total reaction volume was 10 μL in low-volume 384-well plates (#4511, Corning). Serially diluted compounds (3-fold) were incubated with TGF-β kinase (6 nM) for 10 min, following which a mixture of ATP (10 μM) (# A1852, Sigma, St-Louis, Mo.) and fluorescent-PolyGT substrate (200 nM); Cat # PV3610, Invitrogen, Life Technologies Grand Island, N.Y.) was added and incubated in dark at room temperature for 1 h. After 1 h, 10 μL stop solution containing Terbium labeled antibody (4 nM; Cat # PV3529, Invitrogen, Life Technologies Grand Island, N.Y.) and EDTA (# E5134, Sigma, St-Louis, Mo.; 20 mM) in TR-FRET dilution buffer (Cat # PV3574, Invitrogen, Life Technologies Grand Island, N.Y.) was added. Readings were taken in a Synergy Neo Plate reader (BioTek, Winooski) at single excitation of 340 nm and Dual emission at 495 nm and 520 nm respectively.
The % activity of test samples was calculated as (Sample-Min)×100/(Max −Min). [Max: DMSO control, complete reaction with enzyme with DMSO and Min: No enzyme with DMSO]. Percent inhibition (100-% activity) was fitted to the “four-parameter logistic model” in XLfit for determination of IC50 values.

| SMILES | IC50 [µM] |
| --- | --- |
| CC(=O)Nc1cc(Nc2cc(-c3ccc(F)nc3)c(=O)[nH]c2C(C)C)ccn1 [Compound 1.51, N-(4-((6′-fluoro-6-isopropyl-2-oxo-1,2-dihydro-[3,3′-bipyridin]-5-yl)amino)pyridin-2-yl)acetamide] | > 5 |
| CN(C)c1[nH]c(=O)c(-c2cc(Cl)ccc2F)cc1Nc1ccncc1F [Compound 1.41, 3-(5-chloro-2-fluorophenyl)-6-(dimethylamino)-5-((3-fluoropyridin-4-yl)amino)pyridin-2 (1H)-one] | 2 to 5 |
| C[C@@H](O)CNC(=O)c1cnccc1Nc1cc(-c2cc(Cl)ccc2F)c(=O)n2c1N(C)CCC2 [Compound 1.26, (R)-4-((7-(5-chloro-2-fluorophenyl)-1-methyl-6-oxo-1,3,4,6-tetrahydro-2H-pyrido[1,2-a]pyrimidin-9-yl)amino)-N-(2-hydroxypropyl)nicotinamide] | > 5 |
| CN(C)c1[nH]c(=O)c(-c2cc(Cl)ccc2F)cc1Nc1ccncc1C(=O)NC1CC1 [Compound 1.30, 4-((5-(5-chloro-2-fluorophenyl)-2-(dimethylamino)-6-hydroxypyridin-3-yl)amino)-N-cyclopropylnicotinamide] | 2 to 5 |
| Cc1cc(-c2cc(Nc3ncnc4c3CC(=O)N4)c(C(C)C)[nH]c2=O)ccc1F [Compound 1.82, 4-((5-(4-fluoro-3-methylphenyl)-2-isopropyl-6-oxo-1,6-dihydropyridin-3-yl)amino)-5,7-dihydro-6H-pyrrolo[2,3-d]pyrimidin-6-one] | 2 to 5 |
| CC(C)c1[nH]c(=O)c(-c2cc(Cl)ccc2F)cc1Nc1ccnc(NC(=O)CCC(F)(F)F)c1 [Compound 1.46, N-(4-((5-(5-chloro-2-fluorophenyl)-2-isopropyl-6-oxo-1,6-dihydropyridin-3-yl)amino)pyridin-2-yl)-4,4,4-trifluorobutanamide] | > 5 |
| CNC(=O)c1cnccc1Nc1cc(-c2cc(Cl)ccc2F)c(=O)[nH]c1C1CC1 [Compound 1.68, 4-((5-(5-chloro-2-fluorophenyl)-2-cyclopropyl-6-oxo-1,6-dihydropyridin-3-yl)amino)-N-methylnicotinamide] | ≤ 0.5 |
| C[C@@H](O)CNC(=O)c1cnccc1Nc1cc(-c2cc(Cl)ccc2F)c(=O)n2c1N(C)CC2 [Compound 1.24, (R)-4-((6-(5-chloro-2-fluorophenyl)-1-methyl-5-oxo-1,2,3,5-tetrahydroimidazo[1,2-a]pyridin-8-yl)amino)-N-(2-hydroxypropyl)nicotinamide] | > 5 |

The next lines start with the values.

| IC50 [µM] | SMILES |
| --- | --- |
| > 5 | CC(C)c1[nH]c(=O)c(-c2cc(Cl)ccc2F)cc1Nc1ccnc(N)c1 [Compound 1.44, 5-((2-aminopyridin-4-yl)amino)-3-(5-chloro-2-fluorophenyl)-6-isopropylpyridin-2(1H)-one] |
| > 5 | C[C@@H](CO)NC(=O)c1cnccc1Nc1c[nH]c(=O)c(-c2cc(Cl)ccc2F)c1 [Compound 1.2, (S)-4-((5-(5-chloro-2-fluorophenyl)-6-oxo-1,6-dihydropyridin-3-yl)amino)-N-(1-hydroxypropan-2-yl)nicotinamide] |
| ≤ 0.5 | CC(=O)Nc1cc(Nc2cc(-c3ccsc3)c(=O)[nH]c2C(C)C)ccn1 [Compound 1.79, N-(4-((2-isopropyl-6-oxo-5-(thiophen-3-yl)-1,6-dihydropyridin-3-yl)amino)pyridin-2-yl)acetamide] |
| 2 to 5 | CN(C)c1[nH]c(=O)c(-c2cc(Cl)ccc2F)cc1Nc1ccnc2ccncc12 [Compound 1.37, 5-((1,6-naphthyridin-4-yl)amino)-3-(5-chloro-2-fluorophenyl)-6-(dimethylamino)pyridin-2(1H)-one] |
| 0.5 to 2 | CC(C)c1[nH]c(=O)c(-c2ccsc2)cc1Nc1ccnc2ccncc12 [Compound 1.80, 5-((1,6-naphthyridin-4-yl)amino)-6-isopropyl-3-(thiophen-3-yl)pyridin-2(1H)-one] |
| 2 to 5 | C[C@H](O)CNC(=O)c1cnccc1Nc1cc(-c2cc(Cl)ccc2F)c(=O)[nH]c1N(C)C [Compound 1.9, (S)-4-((5-(5-chloro-2-fluorophenyl)-2-(dimethylamino)-6-hydroxypyridin-3-yl)amino)-N-(2-hydroxypropyl)nicotinamide] |
